Laboratory results taken from patent US12605305B2, “Application of citrate metal salt in endodontic treatment, and formulation obtained by preparation” (KUNMING QINGCHENG HEALTHCARE TECH LTD., priority 2020, dated 2026).
“Also recorded” adds a separate entry of the source. Read-outs that look alike come from different tables or passages of the source.

What was measured:
[1] = Compatibility of cationic antibacterial agent with sodium citrate solution; format: physicochemical; details: for Phenomenon (compatibility with sodium citrate solution): 20% sodium citrate solution mixed 1:1 with 0.2% agent solution, room temperature, dark, 7 days
Experimental: (§1) Materials to be tested: sodium citrate, potassium citrate, lithium citrate, citric acid, EDTA-2Na.
(§2) Each of the citric acid metal salts to be tested was prepared as a 20% aqueous solution; the citric acid to be tested was prepared as a 20% aqueous solution; the EDTA-2Na to be tested was prepared as a 10% aqueous solution; and the cationic antibacterial agent to be tested was prepared as a 0.2% aqueous solution. Each of the prepared aqueous solutions of citrate metal salt (or citric acid aqueous solutions) was mixed with each of the prepared aqueous solutions of cationic antibacterial agent to be tested at a ratio of 1:1.
(§3) All the mixed solutions were stored at room temperature in dark and left standing for 7 days before observation.

[2] = Compatibility of cationic antibacterial agent with potassium citrate solution; format: physicochemical; details: for Phenomenon (compatibility with potassium citrate solution): 20% potassium citrate solution mixed 1:1 with 0.2% agent solution, room temperature, dark, 7 days
Experimental: as §1, §2, §3

[3] = Compatibility of cationic antibacterial agent with lithium citrate solution; format: physicochemical; details: for Phenomenon (compatibility with lithium citrate solution): 20% lithium citrate solution mixed 1:1 with 0.2% agent solution, room temperature, dark, 7 days
Experimental: as §1, §2, §3

[4] = Compatibility of cationic antibacterial agent with citric acid solution; format: physicochemical; details: 20% citric acid solution mixed 1:1 with 0.2% agent solution, room temperature, dark, 7 days
Experimental: as §1, §2, §3

[5] = Compatibility of cationic antibacterial agent with EDTA-2Na solution; format: physicochemical; details: 10% EDTA-2Na solution mixed 1:1 with 0.2% agent solution, room temperature, dark, 7 days
Experimental: as §1, §2, §3

[6] = Evaluation of the effect of removing smear layer in vitro (SEM of treated root canal specimens)
Excerpt: Healthy single premolars that need to be extracted for the purpose of clinical orthodontic extraction. Patient age: 14-25 years old. Inclusion criteria: single upright unobstructed root canal, fully developed apical foramen, no near-pulp caries or near-pulp fillings, no history of pulp therapy, no apical root resorption, no root fracture, and other defects, and no periodontal disease.
The soft tissue and calculus around the root of the isolated teeth were removed. The isolated teeth were cleaned and packed for high-temperature and high-pressure steam sterilization. Three sterilized isolated teeth were taken randomly and placed in 10 ml of BHI liquid culture medium, cultured at 37° C. for 24 h, and then taken out. With the naked eye, if the BHI liquid culture medium remains transparent, it is considered that the sterilization effect is reliable. If the BHI liquid culture medium is turbid, it is necessary to re-disinfect all samples and repeat the above steps. After confirmation of successful sterilization, the samples were stored at room temperature for later use.
The pulp chamber of the isolated teeth confirmed to be successfully sterilized was opened using a high-speed hand-piece with an emery ball bit with a diameter of 0.5 mm. After pulp extirpation, the root canal was dredged with an ISO standard #10 stainless steel hand K file, until the file tip that just penetrated the apical foramen was seen. The file was measured for length, from which 0.5 mm was subtracted to establish the working length of the root canal. Then the root canal preparation was performed using a Protaper Universal Engine with Nickel-titanium root canal file to 25/06. […]

[7] = cited from earlier work
[8] = root canal treated for 5 minutes

Molecule	compatibility with sodium citrate (conclusion in words) [1]	Phenomenon (compatibility with sodium citrate solution) [1]	compatibility with potassium citrate (conclusion in words) [2]	Phenomenon (compatibility with potassium citrate solution) [2]	compatibility with lithium citrate (conclusion in words) [3]	Phenomenon (compatibility with lithium citrate solution) [3]	Phenomenon (compatibility with citric acid solution) [4]	Phenomenon (compatibility with EDTA-2Na solution) [5]	effect of removing the smear layer [6, 8]	pH value ([7]; 5% citric acid solution)	pH value ([7]; 10% citric acid solution)	effect of removing the smear layer ([6]; treatment time as per figures (1, 5 and/or 10 min) or not stated)
CCCCCCCCCCCCCCCC[n+]1ccccc1.[Cl-] [hexadecyl pyridinium chloride, reference compound]	compatible	−	compatible	−	compatible	−	−	−				
O=P([O-])([O-])OP(=O)([O-])[O-].[K+].[K+].[K+].[K+] [potassium pyrophosphate]									could not improve the effect of the formulation on removing the smear layer			
CCCCCCCCCCCC[N+](C)(C)Cc1ccccc1.[Cl-] [dodecyl dimethyl benzyl ammonium chloride]	compatible	−	compatible	−	compatible	−	−	−				
polydimethyl diallyl ammonium chloride	compatible	−	compatible	−	compatible	−	−	−				
CCCCCCCCCCCC[N+](C)(C)Cc1ccccc1.[Br-] [dodecyl dimethyl benzyl ammonium bromide]	compatible	−	compatible	−	compatible	−	−	−				
CC(=O)O.CC(=O)O.NC(=N\CCCCCC/N=C(N)/N=C(\N)Nc1ccc(Cl)cc1)/N=C(\N)Nc1ccc(Cl)cc1 [chlorhexidine acetate, reference compound]		+		+		+	+	+				
N-cocoyl-L-arginine ethyl ester-DL-pyrrolidone carboxylate		+		+		+	+	+				
CCCCCCCCCCCC[N+](C)(C)C.[Cl-] [dodecyl trimethyl ammonium chloride]	compatible	−	compatible	−	compatible	−	−	−				
polyhexamethylene biguanide hydrochloride		+		+		+	+	+				
O=C(O)CC(O)(CC(=O)O)C(=O)O [citric acid]										1.93	1.91	
N=C(NCCCCCCNC(=N)NC(=N)Nc1ccc(Cl)cc1)NC(=N)Nc1ccc(Cl)cc1.O=C(O)[C@H](O)[C@@H](O)[C@H](O)[C@H](O)CO.O=C(O)[C@H](O)[C@@H](O)[C@H](O)[C@H](O)CO [chlorhexidine gluconate, reference compound]		+		+		+	+	+				
polyhexamethyl guanidine hydrochloride		+		+		+	+	+				
O=P(O)(O)OP(=O)(O)OP(=O)(O)O [sodium tripolyphosphate]									not helpful for sodium citrate to improve the effect of removing the smear layer			cannot be effective in removing the smear layer; also recorded: very poor effect of removing the smear layer
